Laboratory results reported in paper PMC8480901 (PLoS ONE, 2021).
Where “and” joins values, the source holds several entries; their conditions need not be identical. Identical values can stand only once. Like-named read-outs stand apart in the source and are kept apart here.

Legend:
[1] = test system: LPS-induced acute lung injury; details: pretreated mice vs no-treatment control group; cited from earlier work
human neutrophils = experiment: Cytotoxicity in human neutrophils (CellTiter Glo); format: cell-based
Procedure: (§1) For the chemotaxis and cytotoxicity evaluations, average relative light unit values were calculated from all untreated vehicle samples and, for each sample, percentage of vehicle value was calculated. The tested compound was considered cytotoxic if reduction from untreated vehicle was ≥20%.

[2] = test system: IL-8–activated human neutrophils; experiment: Chemotaxis of IL-8–activated human neutrophils (transwell, CellTiter Glo); format: cell-based; details: for Neutrophilic chemotaxis, RLU, Mean / Neutrophilic chemotaxis: % reduction / Neutrophilic chemotaxis, RLU, single replicates: IL-8; for Neutrophilic chemotaxis, RLU, single replicates: listed as Lef
Excerpt: Buffy coat (blood sample fraction comprising white blood cells and platelets) from whole blood was obtained from a healthy adult volunteer at the Croatian Institute of Transfusion Medicine (CITM; Zagreb, Croatia). The CITM ethics committee approved the blood collection process, and the volunteer provided written informed consent prior to blood collection. Neutrophils were isolated from the buffy coat, an aliquot of which was used for cell counting via hematologic analyzer (X500i; Sysmex). […] The diluted buffy coat was drawn into sterile 50-mL syringes and incubated for 30 minutes at RT. Following incubation, the upper layer of leukocyte-rich plasma (35 mL) was decanted into a new sterile 50-mL conical centrifuge tube, carefully layered onto 15 mL of Lymphoprep (Axis-Shield Diagnostics, Ltd., Dundee, UK) and centrifuged at 400×g (brake turned off) for 35 minutes at RT. The supernatant and mononuclear ring were discarded, and the pellet was resuspended in 10 mL of cold sterile MilliQ water. […] Resuspended neutrophils were counted via Sysmex X500i hematologic analyzer.
All test compounds were reconstituted in DMSO (Sigma-Aldrich Chemie GmbH) to 100-mM stock concentrations, taking into consideration and correcting for salt and purity. A 30-mM stock solution of reference compound Sch527123 (MedChemExpress, Monmouth Junction, NJ, USA) was diluted to 10 mM with DMSO.
DMSO was used as vehicle. […] The reference compound was tested at concentrations of 0.003, 0.01, 0.03, 0.1, 0.3, 1, 3, and 10 μM. All compounds were tested in triplicate, and the final DMSO concentration was 0.1% per well.
Test and reference compound working solutions were then added (20 μL/well) for a 10-fold dilution to final testing concentrations. Compounds and cells were mixed by gentle pipetting, and the plate was pre-incubated for 30 minutes at RT with gentle mixing by pipetting.
Negative control wells received 180 μL of migration medium alone. To all wells, 20 μL of compound working solutions or DMSO vehicle was added. Once pre-incubation of cells with compounds was complete, the transwell inserts were carefully placed on the receiver plate, with caution to avoid air bubble formation, which could prevent cell migration. To the upper wells, 75 μL of cell suspension (375,000 cells/well) was added, taking care not to tear the membrane with pipette tips.
After incubation, the number of cells that migrated to the lower wells was quantified by removing the Transwell insert and adding 200 μL of CellTiter Glo reagent (CellTiter-Glo Luminescent Cell Viability Assay, Promega, Madison, WI, USA) to each lower well to quantify the amount of adenosine triphosphate (ATP) present, signaling the presence of metabolically active cells. The plate was incubated for 10 minutes in the dark at RT, followed by transferring 150 μL of solution into wells of a white 96-well plate (Lumitrac 200; Greiner Bio-One International GmbH, Kremsmunster, Austria).
as §1

[3] = Pharmacokinetics in plasma and epithelial lining fluid of mice after a single SC dose; format: in vivo, BALB/c mice; details: for AUC(0-t): read-out: AUC0-24h, mean±SEM; for Cmax: read-out: Cmax, mean±SEM
Procedure: Pharmacokinetic parameters were evaluated as previously described. […] Plasma samples were analyzed by liquid chromatography with […] mass spectrometry (Q Exactive Plus; Thermo Fisher Scientific).
Area under the curve (AUC) values were determined using the linear trapezoidal method.

J774.2 mouse macrophages = experiment: Cytotoxicity in J774.2 mouse macrophages (adenylate kinase release, ToxiLight); format: cell-based; details: for cell viability: J774.2 cells; for fold-change of adenylate kinase release at test concentration vs vehicle control, Mean ± SEM: J774.2 mouse macrophages, n=2
Procedure: The effect of t est compounds on cell viabilit y of J 774.2 macrophages and human PBMCs […]
was determined b y comp aring th e aden yl ate kinas e signal obtain ed in the p resence of diff er ent concentrations of compounds with those obtained in DMSO (vehicle) control. Signals were […]
divided,and the results were ex pressed as fold-change versus v ehicle con trol .

[4] = female, BALB/c, mouse, epithelial lining fluid (ELF), ELF, mice, single 35 mg/kg SC
[5] = female, BALB/c, mouse, plasma, mice, single 35 mg/kg SC

C[C@@H]1C[C@H]2[C@@H]3CCC4=CC(=O)C=C[C@]4(C)[C@@]3(F)[C@@H](O)C[C@]2(C)[C@@]1(O)C(=O)CO [Dexamethasone]
LPS-induced pulmonary edema, accumulation of inflammatory cells in BALF, and increased inflammatory cytokines (eg, TNF-α and IL-6) [1]: significantly attenuated

C=C[C@]1(C)C[C@@H](OC(=O)CS[C@@H]2CC[C@@H](N)C[C@H]2O)[C@]2(C)[C@H](C)CC[C@]3(CCC(=O)[C@H]32)[C@@H](C)[C@@H]1O [Lefamulin]
% viability at test concentration vs vehicle control, Mean ± SEM (human neutrophils; 0.03 µM, n=3, percentage of RLU): 105 ± 1.36%
% viability at test concentration vs vehicle control, Mean ± SEM (human neutrophils; 0.1 µM, n=3): 106 ± 1.34%
% viability at test concentration vs vehicle control, Mean ± SEM (human neutrophils; 0.3 µM, n=3): 105 ± 2.39%
% viability at test concentration vs vehicle control, Mean ± SEM (human neutrophils; 1 µM, n=3): 103 ± 4.22%
% viability at test concentration vs vehicle control, Mean ± SEM (human neutrophils; 3 µM, n=3): 103 ± 3.07%
% viability at test concentration vs vehicle control, Mean ± SEM (human neutrophils; 10 µM, n=3): 102 ± 2.98%
cytotoxic effects (human neutrophils; 30 μM, cytotoxic if reduction from vehicle ≥20%): no cytotoxic effects
% viability at test concentration vs vehicle control, Mean ± SEM (human neutrophils; 30 µM, n=3): 101 ± 2.58%
% viability at test concentration vs vehicle control, Mean ± SEM (human neutrophils; 100 µM, n=3): 86 ± 2.99%
% viability at test concentration vs vehicle control, Mean ± SEM (human neutrophils; 100 µM, n=3, listed as lefamulin): 86%
IL-8–induced chemotaxis of human neutrophils ([2]; 0.03 to 30 μM): no effect
Neutrophilic chemotaxis, RLU, Mean ([2]; 0.03 µM): 133060 RLU
Neutrophilic chemotaxis: % reduction ([2]; 0.03 µM): -0.0452%
Neutrophilic chemotaxis, RLU, single replicates ([2]; 0.03 µM): 133000 RLU and 133120 RLU
Neutrophilic chemotaxis, RLU, Mean ([2]; 0.1 µM): 130347 RLU
Neutrophilic chemotaxis: % reduction ([2]; 0.1 µM): 2.26%
Neutrophilic chemotaxis, RLU, single replicates ([2]; 0.1 µM): 131200 RLU and 127720 RLU and 132120 RLU
Neutrophilic chemotaxis, RLU, Mean ([2]; 0.3 µM): 132827 RLU
Neutrophilic chemotaxis: % reduction ([2]; 0.3 µM): 0.153%
Neutrophilic chemotaxis, RLU, single replicates ([2]; 0.3 µM): 128480 RLU and 128040 RLU and 141960 RLU
Neutrophilic chemotaxis, RLU, Mean ([2]; 1 µM): 128693 RLU
Neutrophilic chemotaxis: % reduction ([2]; 1 µM): 3.66%
Neutrophilic chemotaxis, RLU, single replicates ([2]; 1 µM): 129760 RLU and 127360 RLU and 128960 RLU
Neutrophilic chemotaxis, RLU, Mean ([2]; 3 µM): 129147 RLU
Neutrophilic chemotaxis: % reduction ([2]; 3 µM): 3.27%
Neutrophilic chemotaxis, RLU, single replicates ([2]; 3 µM): 127920 RLU and 125520 RLU and 134000 RLU
Neutrophilic chemotaxis, RLU, Mean ([2]; 10 µM): 129213 RLU
Neutrophilic chemotaxis: % reduction ([2]; 10 µM): 3.22%
Neutrophilic chemotaxis, RLU, single replicates ([2]; 10 µM): 122760 RLU and 130480 RLU and 134400 RLU
Neutrophilic chemotaxis, RLU, Mean ([2]; 30 µM): 118747 RLU
Neutrophilic chemotaxis: % reduction ([2]; 30 µM): 12%
Neutrophilic chemotaxis, RLU, single replicates ([2]; 30 µM): 115000 RLU and 125400 RLU and 115840 RLU
Neutrophilic chemotaxis, RLU, Mean ([2]; 100 µM): 73307 RLU
Neutrophilic chemotaxis: % reduction ([2]; 100 µM): 51%
Neutrophilic chemotaxis, RLU, single replicates ([2]; 100 µM): 81720 RLU and 76640 RLU and 61560 RLU
plasma AUC0-24h in mice compared with exposures in healthy volunteers after a single dose of 150 mg IV ([3]; 35 mg/kg SC in mice, human data ref 29): comparable
AUC0-24h/Dose, mean ([3]; ELF, mice, single 35 mg/kg SC): 0.36 (μg∙h/mL)/(mg/kg)
Kp ([3]; female, BALB/c, mouse, epithelial lining fluid (ELF) / plasma, mice, single 35 mg/kg SC, read-out: AUC ratio for ELF to plasma): ~2
Tmax [3, 4]: 30 min
AUC(0-t) [3, 4]: 12600 ± 1170 ng·h/mL
Cmax [3, 4]: 2160 ± 500 ng/mL
Tmax [3, 5]: 30 min
AUC(0-t) [3, 5]: 6250 ± 930 ng·h/mL
Cmax [3, 5]: 1330 ± 180 ng/mL
distribution from plasma to ELF (penetration into the lung compartment) ([3]; mice, single SC dose 35 mg/kg): rapid penetration
AUC0-24h/Dose, mean ([3]; plasma, mice, single 35 mg/kg SC): 0.18 (μg∙h/mL)/(mg/kg)
cell viability (J774.2 mouse macrophages; 30 μM): reduced
cell viability (J774.2 mouse macrophages; 100 μM): reduced
fold-change of adenylate kinase release at test concentration vs vehicle control, Mean ± SEM (J774.2 mouse macrophages; 0.03 µM): 1.33 ± 0.11 fold-change
fold-change of adenylate kinase release at test concentration vs vehicle control, Mean ± SEM (J774.2 mouse macrophages; 0.1 µM): 1.27 ± 0.23 fold-change
fold-change of adenylate kinase release at test concentration vs vehicle control, Mean ± SEM (J774.2 mouse macrophages; 0.3 µM): 1.10 ± 0.16 fold-change
fold-change of adenylate kinase release at test concentration vs vehicle control, Mean ± SEM (J774.2 mouse macrophages; 1 µM): 0.89 ± 0.08 fold-change
fold-change of adenylate kinase release at test concentration vs vehicle control, Mean ± SEM (J774.2 mouse macrophages; 3 µM): 1.12 ± 0.18 fold-change
fold-change of adenylate kinase release at test concentration vs vehicle control, Mean ± SEM (J774.2 mouse macrophages; 10 µM): 1.26 ± 0.27 fold-change
fold-change of adenylate kinase release at test concentration vs vehicle control, Mean ± SEM (J774.2 mouse macrophages; 30 µM): 2.00 ± 0.13 fold-change
fold-change of adenylate kinase release at test concentration vs vehicle control, Mean ± SEM (J774.2 mouse macrophages; 100 µM): 6.18 ± 0.05 fold-change
